Experimental data as given in PMC4892293 (Drug Design, Development and Therapy, 2016).

Biological target: T1, human recombinant PPARγ (Homo sapiens, UniProt P37231)
T1 sequence (P37231 1-505): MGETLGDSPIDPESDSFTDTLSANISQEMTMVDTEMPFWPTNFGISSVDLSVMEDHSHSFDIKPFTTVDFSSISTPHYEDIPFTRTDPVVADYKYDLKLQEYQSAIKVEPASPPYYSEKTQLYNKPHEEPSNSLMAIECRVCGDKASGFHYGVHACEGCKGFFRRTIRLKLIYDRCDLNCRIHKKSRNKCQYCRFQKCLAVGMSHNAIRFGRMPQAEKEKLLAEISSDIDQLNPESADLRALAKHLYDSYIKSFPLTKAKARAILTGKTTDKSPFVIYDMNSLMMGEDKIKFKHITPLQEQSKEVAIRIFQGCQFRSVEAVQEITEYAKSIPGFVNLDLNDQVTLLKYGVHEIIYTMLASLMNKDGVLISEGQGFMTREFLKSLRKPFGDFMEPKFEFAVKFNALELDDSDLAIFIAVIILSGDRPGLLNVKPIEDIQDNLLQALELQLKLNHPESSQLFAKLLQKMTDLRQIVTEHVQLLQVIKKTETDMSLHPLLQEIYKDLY
Experiment: FP-based PPARγ ligand screening assay
Format: binding
Settings: concentration of 10.0 μM; Figure 2

agonistic activity in primary FP screening: unable to promote agonistic activity
Substance: 4-((5-(4-Chlorophenyl)-4-methylthiazol-2-yl)amino)-4-oxobutanoic acid [Compound 4f]
